From paper PMC11149917, “Translational and Therapeutic Evaluation of RAS-GTP Inhibition by RMC-6236 in RAS-Driven Cancers” (Cancer Discovery, 2024)

Assays:
[1] = tested on: NCI-H1373-Luc intracranial xenograft; test: Intracranial tumor model (bioluminescence); type: in vivo, mouse; conditions: 25 mg/kg daily oral, 28 days
Excerpt: (§1) LU99 cells (JCRB0080) were stably modified with lentivirus-based pHBLV-CMV-MCS-EF1-fLuc-T2A-puro vector to generate luciferase-expressing LU99-Luc cells. NCI-H1373 cells (ATCC CRL-5866) were stably modified with lentivirus-based pHBLV-CMV-MCS-EF1-fluc-T2A-PURO vector to generate luciferase-expressing NCI-H1373-Luc cells. The eCT26 Kras^G12C^/G12CAbcb1^−^/^− (clone I20) and eCT26 Kras^G12D^/G12DAbcb1^−^/^− (clone I12) cell lines were engineered from the murine CT26 homozygous Kras^G12D tumor cell line (ATCC CRL-2638). All Kras^G12D alleles were replaced with Kras^G12C using CRISPR technology at Synthego. Additionally, the P-glycoprotein drug transporter, Abcb1a and Abcb1b, were knocked out using CRISPR guide sequences […] and […], respectively. The homozygous G12C mutation and the Abcb1 knockout were confirmed by Sanger sequencing in the clone selected and were used for in vivo experiments.
(§2) NCI-H1373-Luc cells (3 × 10^5) were prepared in 3 µL sterile PBS with 20% Matrigel. Each mouse was anesthetized by intraperitoneal (ip) injection of sterile avertin (250 mg/kg) and positioned on the stereotaxic unit. Cells were intracranially injected over 2 minutes at the site 2 mm lateral (right), 0.5 mm anterior, and 3 mm ventral with respect to the bregma. […] The bioluminescence and animal weights were measured and recorded once and twice per week, respectively. […]

[2] = tested on: LU99-Luc (KRAS^G12C/WT, NSCLC) intracranial xenograft; test: Intracranial tumor model (bioluminescence); type: in vivo, mouse; conditions: 25 mg/kg daily oral, 21 days
Excerpt: as §1, §2

Plasma protein binding = type: in vitro ADME; conditions: mouse, mice

## CCn1c(-c2cc(N3CCN(C)CC3)cnc2[C@H](C)OC)c2c3cc(ccc31)-c1csc(n1)C[C@H](NC(=O)[C@H]1C[C@@H]1C)C(=O)N1CCC[C@H](N1)C(=O)OCC(C)(C)C2 [RMC-6236]
[1]
  tumor response by bioluminescent signal: tumor regressions
[2]
  tumor response by bioluminescent signal: tumor regressions
Plasma protein binding
  fraction unbound: 0.011
